For 21 molecules, EC50 results are on record in patent US11377425B1, “Small molecule modulators of IL-17” (LEO Pharma A/S, priority 2018, dated 2022).

In the assay the target is T1, human IL-17AA (Homo sapiens, UniProt Q16552).
T1 construct: host or cells: HEK (human embryonic kidney) cells
T1 sequence (Q16552 24-155): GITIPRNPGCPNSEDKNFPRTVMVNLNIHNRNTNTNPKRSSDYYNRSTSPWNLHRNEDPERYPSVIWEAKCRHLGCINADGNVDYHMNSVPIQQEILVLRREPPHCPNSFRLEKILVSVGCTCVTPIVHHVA
The assay can be described thus: IL-8 release assay in human epithelial keratinocytes adult (HEKa). It is filed as cell-based. The settings on record: HEKa cells, 3 ng/mL HEK-human IL-17AA + 10 ng/mL human TNFalpha; read-out: Rel EC50 IL-8 release assay. The procedure, abridged: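 IL-8 release, quantified by HTRF and normalized to controls, reports IL-17 signaling in HEKa cells treated with compound plus final 3 ng/mL IL-17AA (HEK-derived) and 10 ng/mL TNF-alpha for 68-72 h; TNF-alpha-only wells set 100% inhibition. Four-parameter logistic fits (r^2>0.9) give relative IC50 and Emax; PrestoBlue flags cytotoxicity.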

In general, EC50 refers to the midpoint of the concentration-response curve. Regarding `Cc1n[nH]c(C)c1-c1ccc(NC(=O)[C@@H](NC(=O)OCc2ccccn2)C2CCCCC2)cc1` [Example 431, 2-pyridylmethyl N-[(1S)-1-cyclohexyl-2-[4-(3,5-dimethyl-1H-pyrazol-4-yl)anilino]-2-oxo-ethyl]carbamate], the EC50 is 100 to 1000 nM.

As to `Cc1n[nH]c(CO)c1-c1ccc(NC(=O)[C@@H](NC(=O)c2ccnn2C(C)C)C(C2CC2)C2CC2)cc1` [Example 432, N-[(1S)-1-(Dicyclopropylmethyl)-2-[4-[5-(hydroxymethyl)-3-methyl-1H-pyrazol-4-yl]anilino]-2-oxo-ethyl]-2-isopropyl-pyrazole-3-carboxamide], the EC50 is below 100 nM.

With `Cc1n[nH]c(C(C)O)c1-c1ccc(NC(=O)[C@@H](NC(=O)OC(C)(C)C)C2CCCCC2)cc1` (stereo partly drawn) [Example 433, Tert-butyl N-[(1S)-1-cyclohexyl-2-[4-[5-(1-hydroxyethyl)-3-methyl-1H-pyrazol-4-yl]anilino]-2-oxo-ethyl]carbamate], the EC50 was above 1000 nM.

Consider `Cc1[nH]nc(C(C)O)c1-c1ccc(NC(=O)[C@@H](NC(=O)OC(C)(C)C)C(c2ccccc2)c2ccccc2)cc1` (stereo partly drawn) [Example 434, tert-butyl N-[(1S)-1-benzhydryl-2-[4-[5-(1-hydroxyethyl)-3-methyl-1H-pyrazol-4-yl]anilino]-2-oxo-ethyl]carbamate], for which the EC50 lay in the range of 100 to 1000 nM.

On to `Cc1n[nH]c(C(C)(C)O)c1-c1ccc(NC(=O)[C@@H](NC(=O)c2ccnn2C)C(c2ccccc2)c2ccccc2)cc1` [Example 435, N-[(1S)-1-benzhydryl-2-[4-[5-(1-hydroxy-1-methyl-ethyl)-3-methyl-1H-pyrazol-4-yl]anilino]-2-oxo-ethyl]-2-methyl-pyrazole-3-carboxamide], for which the EC50 fell in the range of 100 to 1000 nM.

In the case of `Cc1[nH]nc(C(C)(C)O)c1-c1ccc(NC(=O)[C@@H](NC(=O)OC(C)(C)C)C2CCCCC2)cc1` [Example 436, tert-butyl N-[(1S)-1-cyclohexyl-2-[4-[5-(1-hydroxy-1-methyl-ethyl)-3-methyl-1H-pyrazol-4-yl]anilino]-2-oxo-ethyl]carbamate], the EC50 was above 1000 nM.

In the case of `Cc1[nH]nc(CO)c1-c1ccc(NC(=O)[C@@H](NC(=O)OC(C)(C)C)C(c2ccccc2)c2ccccc2)cc1` [Example 437, tert-butyl N-[(1S)-1-benzhydryl-2-[4-[5-(hydroxymethyl)-3-methyl-1H-pyrazol-4-yl]anilino]-2-oxo-ethyl]carbamate], the EC50 was in the range of 100 to 1000 nM.

Take `Cc1[nH]nc(CO)c1-c1ccc(NC(=O)[C@@H](NC(=O)OC(C)(C)C)C2CCCCC2)cc1` [Example 438, tert-butyl N-[(1S)-1-cyclohexyl-2-[4-[5-(hydroxymethyl)-3-methyl-1H-pyrazol-4-yl]anilino]-2-oxo-ethyl]carbamate]: the EC50 fell in the range of 100 to 1000 nM.

In the case of `Cc1[nH]nc(CO)c1-c1ccc(NC(=O)[C@@H](NC(=O)OC(C)(C)C)C2CCCCCC2)cc1` [Example 439, tert-butyl N-[(1S)-1-cycloheptyl-2-[4-[5-(hydroxymethyl)-3-methyl-1H-pyrazol-4-yl]anilino]-2-oxo-ethyl]carbamate], the EC50 was in the range of 100 to 1000 nM.

For the molecule `Cc1n[nH]c(C(C)O)c1-c1ccc(NC(=O)[C@@H](NC(=O)c2ccnn2C)C2CCCCC2)cc1` (stereo partly drawn) [Example 440, N-[(1S)-1-Cyclohexyl-2-[4-[5-(1-hydroxyethyl)-3-methyl-1H-pyrazol-4-yl]anilino]-2-oxo-ethyl]-2-methyl-pyrazole-3-carboxamide], the EC50 lay within 100 to 1000 nM.

Turning to `Cc1n[nH]c(C(C)O)c1-c1ccc(NC(=O)[C@@H](NC(=O)C2(F)CC2)C2CCCCC2)cc1` (stereo partly drawn) [Example 441, N-[(1S)-1-cyclohexyl-2-[4-[5-(1-hydroxyethyl)-3-methyl-1H-pyrazol-4-yl]anilino]-2-oxo-ethyl]-1-fluoro-cyclopropanecarboxamide], the EC50 was above 1000 nM.

Consider `Cc1n[nH]c(C(C)O)c1-c1ccc(NC(=O)[C@@H](NC(=O)C2(F)CC2)C(c2ccccc2)c2ccccc2)cc1` (stereo partly drawn) [Example 442, N-[(1S)-1-benzhydryl-2-[4-[5-(1-hydroxyethyl)-3-methyl-1H-pyrazol-4-yl]anilino]-2-oxo-ethyl]-1-fluoro-cyclopropanecarboxamide], for which the EC50 fell in the range of 100 to 1000 nM.

As to `Cc1n[nH]c(C(C)O)c1-c1ccc(NC(=O)[C@@H](NC(=O)c2ccnn2C)C(c2ccccc2)c2ccccc2)cc1` (stereo partly drawn) [Example 443, N-[(1S)-1-benzhydryl-2-[4-[5-(1-hydroxyethyl)-3-methyl-1H-pyrazol-4-yl]anilino]-2-oxo-ethyl]-2-methyl-pyrazole-3-carboxamide], the EC50 was 100 to 1000 nM.

For `Cc1n[nH]c(CO)c1-c1ccc(NC(=O)[C@@H](NC(=O)c2ccnn2C)C2CCCCC2)cc1` [Example 445, N-[(1S)-1-cyclohexyl-2-[4-[5-(hydroxymethyl)-3-methyl-1H-pyrazol-4-yl]anilino]-2-oxo-ethyl]-2-methyl-pyrazole-3-carboxamide], the EC50 was in the range of 100 to 1000 nM.

Take `Cc1n[nH]c(CO)c1-c1ccc(NC(=O)[C@@H](NC(=O)c2ccnn2C)C2CCCCCC2)cc1` [Example 446, N-[(1S)-1-cycloheptyl-2-[4-[5-(hydroxymethyl)-3-methyl-1H-pyrazol-4-yl]anilino]-2-oxo-ethyl]-2-methyl-pyrazole-3-carboxamide]: the EC50 is below 100 nM.

For the molecule `Cc1n[nH]c(CO)c1-c1ccc(NC(=O)[C@@H](NC(=O)c2ccnn2C)C(c2ccccc2)c2ccccc2)cc1` [Example 447, N-[(1S)-1-benzhydryl-2-[4-[5-(hydroxymethyl)-3-methyl-1H-pyrazol-4-yl]anilino]-2-oxo-ethyl]-2-methyl-pyrazole-3-carboxamide], the EC50 is 100 to 1000 nM.

As for `CC(C)n1nccc1C(=O)N[C@H](C(=O)Nc1ccc(-c2c(C(C)(C)O)ncn2C)cc1)C(C1CC1)C1CC1` [Example 448, N-[(1S)-1-(Dicyclopropylmethyl)-2-[4-[5-(1-hydroxy-1-methyl-ethyl)-3-methyl-imidazol-4-yl]anilino]-2-oxo-ethyl]-2-isopropyl-pyrazole-3-carboxamide], the EC50 is 100 to 1000 nM.

For `Cc1n[nH]c(N)c1-c1ccc(NC(=O)[C@@H](NC(=O)c2ccnn2C)C2CCCCC2)cc1` [Example 449, N-[(1S)-2-[4-(3-Amino-5-methyl-1H-pyrazol-4-yl)anilino]-1-cyclohexyl-2-oxo-ethyl]-2-methyl-pyrazole-3-carboxamide], the EC50 lay within 100 to 1000 nM.

For `Cc1n[nH]c(N)c1-c1ccc(NC(=O)[C@@H](NC(=O)c2ccnn2C)C2CCCCCC2)cc1` [Example 450, N-[(1S)-2-[4-(5-amino-3-methyl-1H-pyrazol-4-yl)anilino]-1-cycloheptyl-2-oxo-ethyl]-2-methyl-pyrazole-3-carboxamide], the EC50 was in the range of 100 to 1000 nM.

As for `Cc1n[nH]c(N)c1-c1ccc(NC(=O)[C@@H](NC(=O)c2ccnn2C)C(C2CCC2)C2CCC2)cc1` [Example 451, N-[(1S)-1-[[4-(3-amino-5-methyl-1H-pyrazol-4-yl)phenyl]carbamoyl]-2,2-di(cyclobutyl)ethyl]-2-methyl-pyrazole-3-carboxamide], the EC50 is below 100 nM.

Take `CNc1[nH]nc(C)c1-c1ccc(NC(=O)[C@@H](NC(=O)c2ccnn2C)C2CCCCC2)cc1` [Example 452, N-[(1S)-1-cyclohexyl-2-[4-[5-methyl-3-(methylamino)-1H-pyrazol-4-yl]anilino]-2-oxo-ethyl]-2-methyl-pyrazole-3-carboxamide]: the EC50 was above 1000 nM.
